Test system: silver scurf (Helminthosporium solani)
Assay: Silver scurf coverage on Roseval potatoes after three months storage
Assay type: in vivo
Settings: three months storage at 8° C., thermal fogging
Method: Roseval potatoes were treated by thermal fogging with mint oil at 90 g/tonne, or with 67-72 g/tonne of L-carvone, then three times at 30 g/tonne, or 22.5-24 g/tonne of L-carvone, at 21-day intervals. They were then stored for three months at 8° C. The silver scurf coverage rates were measured on the batches treated with L-carvone and on the controls treated by thermal fogging with CIPC at 200 g/L at a dose of 60 ml/tonne for the first application then at 40 ml/tonne for the subsequent applications.

Row | SMILES | Coverage 5-75% (%) Class 4 [%] | Coverage 6-25% (%) Class 2 | Coverage 26-50% (%) Class 3 | Coverage >75% (%) Class 5 [%] | Coverage ≦5% (%) Class 1 [%] | Silver scurf index (0-100) | Undamaged tubers (%) Class 0
1 | CC(C)OC(=O)Nc1cccc(Cl)c1 [Thermo reference] | 0.7 | 7.7 a % | 3.9 a % | 1.5 | 26.2 | 5.7 a | 60.2 b %
2 | C=C(C)C1CC=C(C)C(=O)C1 [L-carvone, 2-methyl-5-(1-methylethenyl)-2-cyclohexen-1-one] | 0.0 | 0.0 b % | 0.0 b % | 0.0 | 28.5 | 0.8 b | 71.5 a %

From patent US20110003694A1, “USE OF SOLUTIONS OF MINT OIL OR OF L-CARVONE FOR THE FUNGICIDAL AND/OR ANTI-GERMINATING TREATMENT OF BULBS AND/OR TUBERS” (Zone Artisanale La Crau Route Nationale 7, priority 2007, published 2011)
